# Source: PubChem BioAssay (NCI)
# “And” between values parts separate entries of the source, which are not always exact repeats. Equal values may be shown once.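 Briefly, cells in 96-well plates were exposed to five compound concentrations for 48 h, and endpoints were estimated by linear interpolation. The concentration for 50% growth inhibition is given as GI50. TGI denotes the concentration required for complete inhibition of growth.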
# How the values were obtained:
# Assay in all cases: inhibition of tumour cell growth, NCI panel, 48 h
# [1] = system: A498 renal
# [2] = system: BT-549 breast
# [3] = system: CAKI-1 renal
# [4] = system: COLO 205 colon
# [5] = system: HCC-2998 colon
# [6] = system: IGROV1 ovarian
# [7] = system: KM12 colon
# [8] = system: NCI-H226 lung
# [9] = system: PC-3 prostate
# [10] = system: SF-268 CNS
# [11] = system: SK-MEL-5 melanoma
# [12] = system: SK-OV-3 ovarian
# [13] = system: TK-10 renal
# [14] = system: UACC-257 melanoma
# [15] = system: UO-31 renal
# [16] = system: 786-0 renal
# [17] = system: ACHN renal
# [18] = system: CCRF-CEM leukemia
# [19] = system: DU-145 prostate
# [20] = system: EKVX NSCLC
# [21] = system: HCT-15 colon
# [22] = system: HOP-62 NSCLC
# [23] = system: HOP-92 NSCLC
# [24] = system: HS 578T breast
# [25] = system: LOX IMVI melanoma
# [26] = system: MALME-3M melanoma
# [27] = system: MDA-MB-231 breast
# [28] = system: NCI-H23 lung
# [29] = system: NCI-H522 lung
# [30] = system: OVCAR-3 ovarian
# [31] = system: OVCAR-4 ovarian
# [32] = system: OVCAR-5 ovarian
# [33] = system: OVCAR-8 ovarian
# [34] = system: RPMI-8226 leukemia
# [35] = system: RXF 393 renal
# [36] = system: SF-295 CNS
# [37] = system: SF-539 CNS
# [38] = system: SK-MEL-2 melanoma
# [39] = system: SK-MEL-28 melanoma
# [40] = system: SNB-19 CNS
# [41] = system: SR leukemia
# [42] = system: T-47D breast
# [43] = system: U251 CNS
# [44] = system: UACC-62 melanoma
# [45] = system: A549 NSCLC
# [46] = system: HL-60(TB) leukemia
# [47] = system: K-562 leukemia
# [48] = system: M14 melanoma
# [49] = system: MOLT-4 leukemia
# [50] = system: NCI-H460 lung
# [51] = system: HCT-116 colon
# [52] = system: HT29 colon
# [53] = system: MCF7 breast
# [54] = system: MDA-MB-435
# [55] = system: SN12C renal
# [56] = system: SNB-75 CNS
# [57] = system: SW-620 colon
compound,measurement,setting,value
CC(=O)N1N=C(c2ccc(C)cc2)CC1c1cn(-c2ccccc2)nc1-c1cccc(Nc2ccnc3cc(Cl)ccc23)c1 (centres undefined),GI50,[1],> 100 µM
same,TGI,[1],> 100 µM
same,GI50,[2],> 100 µM
same,TGI,[2],> 100 µM
same,GI50,[3],> 100 µM
same,TGI,[3],> 100 µM
same,GI50,[4],> 100 µM
same,TGI,[4],> 100 µM
same,GI50,[5],> 100 µM
same,TGI,[5],> 100 µM
same,GI50,[6],> 100 µM
same,TGI,[6],> 100 µM
same,GI50,[7],> 100 µM
same,TGI,[7],> 100 µM
same,GI50,[8],> 100 µM
same,TGI,[8],> 100 µM
same,GI50,[9],> 100 µM
same,TGI,[9],> 100 µM
same,GI50,[10],> 100 µM
same,TGI,[10],> 100 µM
same,GI50,[11],> 100 µM
same,TGI,[11],> 100 µM
same,GI50,[12],> 100 µM
same,TGI,[12],> 100 µM
same,GI50,[13],> 100 µM
same,TGI,[13],> 100 µM
same,GI50,[14],> 100 µM
same,TGI,[14],> 100 µM
same,GI50,[15],> 100 µM
same,TGI,[15],> 100 µM
CC(C)[Si](Oc1ccc(CC2N(C(=O)c3ccc([N+](=O)[O-])cc3)C(CCc3ccccc3)CC2(C)C=O)cc1)(C(C)C)C(C)C (centres undefined),TGI,[16],> 100 µM
same,TGI,[1],> 100 µM
same,TGI,[17],> 100 µM
same,TGI,[2],> 100 µM
same,TGI,[3],> 100 µM
same,TGI,[18],> 100 µM
same,TGI,[4],> 100 µM
same,TGI,[19],> 100 µM
same,TGI,[20],> 100 µM
same,TGI,[5],> 100 µM
same,TGI,[21],> 100 µM
same,TGI,[22],31.5 µM
same,TGI,[23],82.8 µM
same,TGI,[24],> 100 µM
same,TGI,[6],> 100 µM
same,TGI,[25],> 100 µM
same,TGI,[26],> 100 µM
same,TGI,[27],95.5 µM
same,TGI,[8],98.2 µM
same,TGI,[28],> 100 µM
same,TGI,[29],> 100 µM
same,TGI,[30],> 100 µM
same,TGI,[31],> 100 µM
same,TGI,[32],> 100 µM
same,TGI,[33],42.5 µM
same,TGI,[9],> 100 µM
same,TGI,[34],> 100 µM
same,TGI,[35],28.2 µM
same,TGI,[10],54.8 µM
same,TGI,[36],> 100 µM
same,TGI,[37],23.2 µM
same,TGI,[38],> 100 µM
same,TGI,[39],> 100 µM
same,TGI,[12],> 100 µM
same,TGI,[40],59.4 µM
same,TGI,[41],> 100 µM
same,TGI,[42],> 100 µM
same,TGI,[13],> 100 µM
same,TGI,[43],> 100 µM
same,TGI,[14],> 100 µM
same,TGI,[44],> 100 µM
same,TGI,[15],> 100 µM
COCCCC(NC(=O)C(CC(C)C)NC(=O)OCc1ccc(OC)cc1)C(=O)OC (centres undefined),GI50,[16],80.6 µg/mL
same,GI50,[45],61.1 µg/mL
same,GI50,[18],42.1 µg/mL
same,TGI,[18],87.1 µg/mL
same,GI50,[19],77.6 µg/mL
same,GI50,[5],32.5 µg/mL
same,TGI,[5],75.1 µg/mL
same,GI50,[46],26.9 µg/mL
same,TGI,[46],57.5 µg/mL
same,GI50,[23],40.8 µg/mL
same,TGI,[23],65.4 µg/mL
same,GI50,[47],36 µg/mL
same,TGI,[47],81.5 µg/mL
same,GI50,[25],96.4 µg/mL
same,GI50,[48],50.5 µg/mL
same,TGI,[48],85.3 µg/mL
same,GI50,[49],39.4 µg/mL
same,TGI,[49],60.1 µg/mL
same,GI50,[50],23 µg/mL
same,TGI,[50],46.2 µg/mL
same,GI50,[29],59.8 µg/mL
same,GI50,[34],27 µg/mL
same,TGI,[34],70 µg/mL
same,GI50,[36],83.3 µg/mL
same,GI50,[39],47.1 µg/mL
same,TGI,[39],76.6 µg/mL
same,GI50,[12],71.6 µg/mL
same,GI50,[41],18.8 µg/mL
same,TGI,[41],42.5 µg/mL
same,GI50,[44],71.3 µg/mL
O=C(Nc1cccc(-n2ccc3c(NC(=O)c4ccccc4)nccc32)c1)c1ccc(Cl)c(C(F)(F)F)c1,TGI,[20],17.1 µM and > 100 µM
same,GI50,[51],0.136 µM and 0.513 µM
same,TGI,[47],6.77 µM and 50.9 µM
same,GI50,[25],0.163 µM and 0.612 µM
same,TGI,[8],10.2 µM and > 100 µM
same,GI50,[50],0.116 µM and 0.481 µM
same,GI50,[9],0.143 µM and 0.95 µM
same,TGI,[41],6.71 µM and 15.7 µM
same,GI50,[43],0.125 µM and 0.759 µM
COc1ccc2c(ccc3c(C(=O)NCCCN(C)CCCNC(=O)c4cn(C)c5c4ccc4cc(OC)ccc45)cn(C)c32)c1,TGI,[1],> 100 µM
same,TGI,[17],3.02 µM
same,TGI,[18],> 100 µM
same,TGI,[4],4.87 µM
same,TGI,[19],3.17 µM
same,TGI,[20],2.92 µM
same,TGI,[5],2.97 µM
same,TGI,[21],2.6 µM
same,TGI,[24],4.78 µM
same,TGI,[6],2.86 µM
same,TGI,[47],> 100 µM
same,TGI,[7],2.9 µM
same,TGI,[48],2.94 µM
same,TGI,[49],> 100 µM
same,TGI,[28],2.97 µM
same,TGI,[50],2.79 µM
same,TGI,[31],3.27 µM
same,TGI,[9],2.88 µM
same,TGI,[34],5.89 µM
same,TGI,[10],3.38 µM
same,TGI,[14],2.97 µM
same,TGI,[44],3.15 µM
same,TGI,[15],3.01 µM
O=C(NN1C(=O)CSC1c1c(Cl)cccc1Cl)C(O)c1ccccc1 (centres undefined),GI50,[16],69.3 µM
same,TGI,[16],> 100 µM
same,GI50,[1],> 100 µM
same,TGI,[1],> 100 µM
same,GI50,[45],21.2 µM
same,TGI,[45],81.6 µM
same,GI50,[17],28.4 µM
same,TGI,[17],> 100 µM
same,GI50,[2],80 µM
same,TGI,[2],> 100 µM
same,GI50,[3],23.9 µM
same,TGI,[3],> 100 µM
same,GI50,[18],43.7 µM
same,TGI,[18],> 100 µM
same,GI50,[4],34.1 µM
same,TGI,[4],> 100 µM
same,GI50,[19],> 100 µM
same,TGI,[19],> 100 µM
same,GI50,[20],59.6 µM
same,TGI,[20],> 100 µM
same,GI50,[5],64.3 µM
same,TGI,[5],> 100 µM
same,GI50,[51],36.7 µM
same,TGI,[51],> 100 µM
same,GI50,[21],30.5 µM
same,TGI,[21],> 100 µM
same,GI50,[22],> 100 µM
same,TGI,[22],> 100 µM
same,GI50,[23],20.9 µM
same,TGI,[23],98.9 µM
same,GI50,[24],> 100 µM
same,TGI,[24],> 100 µM
same,GI50,[52],33.1 µM
same,TGI,[52],> 100 µM
same,GI50,[6],40.8 µM
same,TGI,[6],> 100 µM
same,GI50,[47],29.7 µM
same,TGI,[47],76 µM
same,GI50,[7],34.2 µM
same,TGI,[7],> 100 µM
same,GI50,[25],64.7 µM
same,TGI,[25],> 100 µM
same,GI50,[48],35.7 µM
same,TGI,[48],> 100 µM
same,GI50,[26],31.7 µM
same,TGI,[26],> 100 µM
same,GI50,[53],44.2 µM
same,TGI,[53],> 100 µM
same,GI50,[27],19.2 µM
same,TGI,[27],> 100 µM
same,GI50,[54],25 µM
same,TGI,[54],> 100 µM
same,GI50,[49],25 µM
same,TGI,[49],80.7 µM
same,GI50,[8],38.1 µM
same,TGI,[8],> 100 µM
same,GI50,[28],19.9 µM
same,TGI,[28],> 100 µM
same,GI50,[50],40.4 µM
same,TGI,[50],> 100 µM
same,GI50,[29],25.7 µM
same,TGI,[29],> 100 µM
same,GI50,[30],21.3 µM
same,TGI,[30],76.6 µM
same,GI50,[31],29.1 µM
same,TGI,[31],> 100 µM
same,GI50,[32],> 100 µM
same,TGI,[32],> 100 µM
same,GI50,[33],52 µM
same,TGI,[33],> 100 µM
same,GI50,[9],29.6 µM
same,TGI,[9],> 100 µM
same,GI50,[34],43.8 µM
same,TGI,[34],> 100 µM
same,GI50,[35],29.3 µM
same,TGI,[35],> 100 µM
same,GI50,[10],60 µM
same,TGI,[10],> 100 µM
same,GI50,[36],37.3 µM
same,TGI,[36],> 100 µM
same,GI50,[37],> 100 µM
same,TGI,[37],> 100 µM
same,GI50,[38],50.5 µM
same,TGI,[38],> 100 µM
same,GI50,[39],63.7 µM
same,TGI,[39],> 100 µM
same,GI50,[11],32.8 µM
same,TGI,[11],> 100 µM
same,GI50,[12],> 100 µM
same,TGI,[12],> 100 µM
same,GI50,[55],34.9 µM
same,TGI,[55],> 100 µM
same,GI50,[40],71.6 µM
same,TGI,[40],> 100 µM
same,GI50,[56],32.4 µM
same,TGI,[56],> 100 µM
same,GI50,[57],71.8 µM
same,TGI,[57],> 100 µM
same,GI50,[42],40.4 µM
same,TGI,[42],> 100 µM
same,GI50,[13],78.9 µM
same,TGI,[13],> 100 µM
same,GI50,[43],37.3 µM
same,TGI,[43],> 100 µM
same,GI50,[14],31 µM
same,TGI,[14],94.5 µM
same,GI50,[44],7.15 µM
same,TGI,[44],43.5 µM
same,GI50,[15],29.3 µM
same,TGI,[15],> 100 µM
